Laboratory results taken from ChEMBL document CHEMBL5365457, “Selective HDAC3 Inhibitors with Potent In Vivo Antitumor Efficacy against Triple-Negative Breast Cancer” (J Med Chem, 2023).
Calls of active or inactive are those of the source. No cut-off for these calls is given here.

What was measured:
[1] = biological target: T1, Protein deacetylase HDAC6 (Homo sapiens, UniProt Q9UBN7); experiment: Inhibition of human recombinant HDAC6 incubated for 10 mins by fluorescence based microplate analysis
T1 sequence (Q9UBN7 whole entry): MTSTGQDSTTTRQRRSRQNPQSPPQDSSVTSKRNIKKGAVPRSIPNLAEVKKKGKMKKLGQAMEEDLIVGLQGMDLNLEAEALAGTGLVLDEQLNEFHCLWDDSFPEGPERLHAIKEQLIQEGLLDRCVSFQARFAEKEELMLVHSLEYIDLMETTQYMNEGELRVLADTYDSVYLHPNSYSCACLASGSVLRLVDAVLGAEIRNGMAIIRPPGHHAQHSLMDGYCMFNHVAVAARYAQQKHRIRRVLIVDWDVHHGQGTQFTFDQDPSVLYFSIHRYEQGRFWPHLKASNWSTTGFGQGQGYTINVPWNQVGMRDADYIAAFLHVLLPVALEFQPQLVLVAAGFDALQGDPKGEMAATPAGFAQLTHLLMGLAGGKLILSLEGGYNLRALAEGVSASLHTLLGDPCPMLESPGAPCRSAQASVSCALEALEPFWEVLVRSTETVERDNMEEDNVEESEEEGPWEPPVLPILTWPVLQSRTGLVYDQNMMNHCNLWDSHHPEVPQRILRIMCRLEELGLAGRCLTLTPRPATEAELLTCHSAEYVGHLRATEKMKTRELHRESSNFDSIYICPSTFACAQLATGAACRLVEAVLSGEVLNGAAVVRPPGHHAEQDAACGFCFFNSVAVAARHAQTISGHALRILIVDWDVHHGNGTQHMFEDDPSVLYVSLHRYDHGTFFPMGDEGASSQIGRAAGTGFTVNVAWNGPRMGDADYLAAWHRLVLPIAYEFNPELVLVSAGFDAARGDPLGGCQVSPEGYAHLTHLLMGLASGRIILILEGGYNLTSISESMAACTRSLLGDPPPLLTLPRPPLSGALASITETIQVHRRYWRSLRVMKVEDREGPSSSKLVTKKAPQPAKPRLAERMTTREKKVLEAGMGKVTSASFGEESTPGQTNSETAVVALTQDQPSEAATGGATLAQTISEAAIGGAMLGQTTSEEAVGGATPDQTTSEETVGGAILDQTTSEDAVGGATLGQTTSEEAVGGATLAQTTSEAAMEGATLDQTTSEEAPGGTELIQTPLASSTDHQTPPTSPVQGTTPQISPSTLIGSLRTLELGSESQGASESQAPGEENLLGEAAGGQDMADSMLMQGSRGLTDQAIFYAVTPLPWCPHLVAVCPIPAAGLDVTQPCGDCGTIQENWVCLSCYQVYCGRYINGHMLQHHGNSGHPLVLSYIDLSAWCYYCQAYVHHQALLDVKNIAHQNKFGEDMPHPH

[2] = Half life in Wistar rat at 5 mg/kg, ip measured upto 24 hrs by HPLC analysis; assay type: ADME, organism-based; conditions: in vivo
4T1 [3] = experiment: Antitumor activity against mouse 4T1 cells implanted in BALB/c mouse assessed as reduction in tumor volume at 50 to 100 mg/kg, ip administered 5 times a week for 21 days; assay type: functional, organism-based; conditions: dose 50-100 mg/kg, time 21.0 day
[4] = Selectivity ratio of IC50 for cytotoxicity against human MCF-10A cells assessed as inhibition of cell growth to IC50 for cytotoxicity against […] cells assessed as inhibition of cell growth; assay type: toxicity, cell-based; conditions: MCF-10A cells versus 4T1 cells, read-out: Ratio IC50
[5] = biological target: T2, Histone deacetylase 3 (Mus musculus) (UniProt O88895); experiment: Inhibition of HDAC3 in mouse 4T1 cells assessed as increase in acetylation of H4K12 level at 1 uM incubated for 72 hrs by western blot analysis; assay type: cell-based
T2 sequence (whole entry): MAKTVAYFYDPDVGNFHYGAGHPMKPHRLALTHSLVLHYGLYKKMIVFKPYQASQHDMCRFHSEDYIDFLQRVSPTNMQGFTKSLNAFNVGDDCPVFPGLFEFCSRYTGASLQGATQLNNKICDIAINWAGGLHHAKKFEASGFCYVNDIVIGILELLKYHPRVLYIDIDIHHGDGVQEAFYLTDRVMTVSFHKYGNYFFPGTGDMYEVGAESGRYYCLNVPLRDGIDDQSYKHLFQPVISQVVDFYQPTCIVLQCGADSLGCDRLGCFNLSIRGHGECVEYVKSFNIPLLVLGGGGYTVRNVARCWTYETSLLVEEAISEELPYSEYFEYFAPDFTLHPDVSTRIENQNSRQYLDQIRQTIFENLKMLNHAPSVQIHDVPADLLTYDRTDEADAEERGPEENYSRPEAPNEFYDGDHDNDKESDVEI

[6] = Toxicity in BALB/c mouse implanted with mouse 4T1 cells assessed as effect on cell size in heart at 5 to 15 mg/kg, ip measured after 21 days by H and E staining based assay; assay type: organism-based; conditions: in vivo, 504 h, dose 5-15 mg/kg, time 21 day
[7] = MRT (0 to infinity) in Wistar rat at 15 mg/kg, ip measured upto 24 hrs by HPLC analysis; assay type: ADME, organism-based; conditions: in vivo
4T1 [8] = experiment: Cell cycle arrest in mouse 4T1 cells assessed as accumulation of cells at G2/M phase at 550 nM incubated for 72 hrs by flow cytometry; assay type: functional
[9] = Toxicity in BALB/c mouse implanted with mouse 4T1 cells assessed as spleen damage at 5 to 15 mg/kg, ip measured after 21 days by H and E staining based assay; assay type: organism-based; conditions: in vivo, 504 h, dose 5-15 mg/kg, time 21 day
[10] = Selectivity ratio of IC50 for cytotoxicity against human HCEC cells assessed as inhibition of cell growth to IC50 for cytotoxicity against mouse 4T1 cells assessed as inhibition of cell growth; assay type: toxicity, cell-based; conditions: HCEC cells versus 4T1 cells, read-out: Ratio IC50
[11] = Toxicity in BALB/c mouse implanted with mouse 4T1 cells assessed as kidney damage at 5 to 15 mg/kg, ip measured after 21 days by H and E staining based assay; assay type: organism-based; conditions: in vivo, 504 h, dose 5-15 mg/kg, time 21 day
4T1 [12] = experiment: Antitumor activity against mouse 4T1 cells implanted in BALB/c mouse assessed as downregulation of Bcl-2 level in tumor at 5 to 15 mg/kg, ip by Western blot analysis; assay type: functional, organism-based; conditions: dose 5-15 mg/kg
Histone deacetylase 5 = Histone deacetylase 5 (Homo sapiens, UniProt Q9UQL6); experiment: Inhibition of recombinant HDAC5 (unknown origin) incubated for 30 mins by fluorescence based microplate analysis
[13] = Apparent volume of distribution in Wistar rat at 5 mg/kg, ip measured upto 24 hrs by HPLC analysis; assay type: ADME, organism-based; conditions: in vivo
4T1 [14] = experiment: Antitumor activity against mouse 4T1 cells implanted in BALB/c mouse assessed as reduction in lung metastasis at 5 to 15 mg/kg, ip measured for 7 days by H and E staining based assay; assay type: functional; set-up: scale not given: the % may be the effect or the level left; conditions: dose 5-15 mg/kg, time 7 day
4T1 [15] = experiment: Antitumor activity against mouse 4T1 cells implanted in BALB/c mouse assessed as reduction in tumor volume at 15 mg/kg, ip administered 5 times a week for 21 days (reference value: 52.05+/-12.35 mm3); assay type: functional; conditions: time 21 day
Histone deacetylase 3 = Histone deacetylase 3 (Homo sapiens, UniProt O15379); experiment: Inhibition of human recombinant HDAC3 incubated for 15 mins by fluorescence based microplate analysis
Histone deacetylase 3, sequence (O15379 whole entry): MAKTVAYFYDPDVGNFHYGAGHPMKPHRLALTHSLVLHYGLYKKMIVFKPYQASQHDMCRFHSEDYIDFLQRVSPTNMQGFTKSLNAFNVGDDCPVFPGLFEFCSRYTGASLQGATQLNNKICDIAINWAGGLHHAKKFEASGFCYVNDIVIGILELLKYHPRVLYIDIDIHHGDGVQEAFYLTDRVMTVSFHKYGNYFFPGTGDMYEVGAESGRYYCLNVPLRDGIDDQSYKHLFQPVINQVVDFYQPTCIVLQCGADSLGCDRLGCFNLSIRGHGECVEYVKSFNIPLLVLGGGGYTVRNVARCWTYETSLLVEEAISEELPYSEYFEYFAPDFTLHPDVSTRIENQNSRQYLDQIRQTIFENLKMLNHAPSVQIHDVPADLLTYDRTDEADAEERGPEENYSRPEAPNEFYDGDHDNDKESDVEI

Histone deacetylase 5, sequence (Q9UQL6 whole entry): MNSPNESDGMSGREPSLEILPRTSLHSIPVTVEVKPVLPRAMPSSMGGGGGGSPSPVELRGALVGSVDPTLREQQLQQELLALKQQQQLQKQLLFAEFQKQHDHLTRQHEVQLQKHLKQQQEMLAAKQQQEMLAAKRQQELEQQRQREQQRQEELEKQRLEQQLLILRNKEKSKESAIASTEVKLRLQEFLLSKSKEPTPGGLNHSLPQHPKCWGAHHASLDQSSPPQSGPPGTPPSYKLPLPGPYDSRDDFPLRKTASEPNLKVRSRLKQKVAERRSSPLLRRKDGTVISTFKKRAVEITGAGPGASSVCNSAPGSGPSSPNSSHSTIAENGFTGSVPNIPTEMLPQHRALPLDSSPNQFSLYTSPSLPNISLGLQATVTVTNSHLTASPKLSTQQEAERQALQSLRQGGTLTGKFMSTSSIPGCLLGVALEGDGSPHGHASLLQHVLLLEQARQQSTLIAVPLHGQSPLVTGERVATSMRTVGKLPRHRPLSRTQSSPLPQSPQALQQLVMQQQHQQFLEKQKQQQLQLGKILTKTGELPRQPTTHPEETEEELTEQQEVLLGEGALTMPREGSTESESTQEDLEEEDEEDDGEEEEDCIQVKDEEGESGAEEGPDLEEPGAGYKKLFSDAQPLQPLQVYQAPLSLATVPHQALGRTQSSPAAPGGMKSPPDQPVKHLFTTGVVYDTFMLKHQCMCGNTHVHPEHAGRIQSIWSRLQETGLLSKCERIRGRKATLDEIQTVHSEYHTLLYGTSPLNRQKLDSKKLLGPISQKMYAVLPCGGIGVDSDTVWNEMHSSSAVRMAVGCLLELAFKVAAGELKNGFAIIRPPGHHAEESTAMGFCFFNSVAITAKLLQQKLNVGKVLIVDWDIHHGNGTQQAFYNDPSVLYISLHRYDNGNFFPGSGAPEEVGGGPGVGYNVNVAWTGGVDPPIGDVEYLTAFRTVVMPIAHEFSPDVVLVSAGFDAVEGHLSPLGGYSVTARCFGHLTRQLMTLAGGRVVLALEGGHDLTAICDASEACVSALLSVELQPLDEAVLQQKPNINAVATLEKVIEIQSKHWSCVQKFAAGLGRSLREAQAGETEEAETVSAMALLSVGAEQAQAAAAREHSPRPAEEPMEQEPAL

IC50 [1]: 25.9 µM | half-life [2]: 7.19 h | inhibition [5]: Active | MRT inf [7]: 6.57 h | IC50 (Histone deacetylase 5): > 20 µM | Vz/F [13]: 7.01 (mg/kg)/(ug/ml) | IC50 (Histone deacetylase 3): 0.014 µM
Structure (SMILES): CCCNNC(=O)c1cnc(NCc2ccc(OC)cc2)cn1
Activity (4T1 [3]): Active | selectivity ratio [4]: 385 | Activity [6]: Non-Toxic | Activity (4T1 [8]): 52.6% | Activity [9]: Non-Toxic | selectivity ratio [10]: 286 | Activity [11]: Non-Toxic | Activity (4T1 [12]): Active | Activity (4T1 [14]): ~90% | Activity (4T1 [15]): 101.23 mm3
